Measurements reported in US7276494B2, “Photosensitisers” (Photopharmica Limited, priority 2000, dated 2007).

Tests used:
[1] = tested on: RIF-1 (murine fibrosarcoma) cells; experiment: Phototoxicity towards cells in culture (photocytotoxic activity in killing RIF-1 cells); format: cell-based; details: concentration causing 50% cell death in two hours of illumination
Description: [Phot]=Zinc Phthalocyanine; n=4; LD50 is the concentration of drug needed to cause 50% cell death in two hours of illumination

LSBD1 tumour = experiment: PDT-induced LSBD1 tumour growth delay in BDIX rats; format: in vivo; details: 400 J
Description: Data are shown in two animals models, the rat and the mouse. […] Growth delay measures the additional time taken for a treated tumour to grow to a given size, compared with an untreated tumour. Zero growth delay signifies no effect and growth delays of 5 days or longer imply substantial PDT activity.
(1) PDT-Induced LSBD1 Tumour Growth Delay in BDIX Rats
Tumour growth delay is calculated as the number of days for treated tumour to reach a mean diameter of 15 mm minus the number of days for a control tumour to reach a mean diameter of 15 mm. Data for various compounds are shown in Table 2, which also indicates the times (drug-light interval) at which effects occurred.

red blood cells = details: J. Photochem. Photobiol B: Biology., 45 (1998) 28-35; cited from earlier work
RIF-1 tumour cells = experiment: In vitro photodynamic activity, RIF-1 tumour cells, cell kill by MTT assay after 665 nm laser radiation; format: cell-based, murine; details: for Light: LD50 (average) / Dark: cell kill: RIF-1 tumour cells, MTT assay; for Light: LD50 (average): 665 nm laser radiation for a fixed time; for Dark: cell kill: no light
Description: In vitro photodynamic activity for zinc phthalocyanine-2-(N-2-carboxyethyl)sulphonamide compared with Zinc phthalocyanine tetrasulphonic acid. The sensitiser was tested by incubation with RIF-1 tumour cells at various dose rates, and measuring the cell kill by MTT assay after exposure to 665 nm laser radiation for a fixed time. The results were compared with zinc phthalocyanine tetrasulphonic acid as a control, and were expressed as the LD50 value for the sensitisers.

[2] = drug-light interval 24 h, 5 mg/kg, 680 nm
[3] = drug-light interval 48 h, 5 mg/kg, 680 nm
[4] = drug-light interval 4 h, 10 mg/kg, 680 nm phthalocyanines / 630 nm PHP
[5] = drug-light interval 24 h, 10 mg/kg, 680 nm phthalocyanines / 630 nm PHP
[6] = drug-light interval 48 h, 10 mg/kg, 680 nm phthalocyanines / 630 nm PHP

Substance: Tetrasulphonylaminoglycine zinc (II) phthalocyanine [TSZnPc-glycine]
- 2h LD50 (mean ± SD, n 3) [1]: 142 ± 37 µM
- Tumour growth delay (LSBD1 tumour; drug-light interval 4 h, 5 mg/kg, 680 nm): 8.5 ± 3.5 days
- Tumour growth delay (LSBD1 tumour; [2]): 4.7 ± 0.75 days
- Tumour growth delay (LSBD1 tumour; [3]): 4.5 days
- ability to effect haemolysis of red blood cells (red blood cells): relatively poor

Substance: tetrasulphonylamino β-alanine zinc (II) phthalocyanine [TSZnPc-β-alanine]
- 2h LD50 (mean ± SD, n 3) [1]: 109 ± 31 µM
- Tumour growth delay (LSBD1 tumour; drug-light interval 2 h, 10 mg/kg, 680 nm): 6 ± 0.62 days
- Tumour growth delay (LSBD1 tumour; [4]): 10 ± 2.62 days
- Tumour growth delay (LSBD1 tumour; drug-light interval 6 h, 10 mg/kg, 680 nm): 5.25 ± 1.59 days
- Tumour growth delay (LSBD1 tumour; [2]): 2 days
- Tumour growth delay (LSBD1 tumour; [3]): 2 days

Substance: tetrasulphonylamino valeric acid zinc (II) phthalocyanine [TSZnPc-aminovaleric acid]
- 2h LD50 (mean ± SD, n 3) [1]: 125 ± 13 µM

Substance: tetrasulphonylamino-α-alanine zinc (II) phthalocyanine [TSZnPc-α-alanine]
- 2h LD50 (mean ± SD, n 3) [1]: 109 ± 39 µM
- Tumour growth delay (LSBD1 tumour; [4]): 4.33 ± 0.83 days
- Tumour growth delay (LSBD1 tumour; [5]): 6.67 ± 1.09 days
- Tumour growth delay (LSBD1 tumour; [6]): 3.33 ± 0.73 days

Substance: zinc phthalocyanine-2-(N-2-carboxyethyl)sulphonamide
- Light: LD50 (average) (RIF-1 tumour cells): 0.2 µM
- Dark: cell kill (RIF-1 tumour cells): no cell kill detectable
- times more PDT active than the tetrasulphonic acid (in vitro) (RIF-1 tumour cells; ratio of light LD50 values, RIF-1 cells): at least 50 times

Substance: zinc phthalocyanine tetrasulphonic acid [reference compound]
- Light: LD50 (average) (RIF-1 tumour cells): > 10 µM
- Dark: cell kill (RIF-1 tumour cells): no cell kill detectable

Substance: tetrasulphonylamino butyric acid zinc (II) phthalocyanine [TSZnPc-aminobutyric acid]
- 2h LD50 (mean ± SD, n 3) [1]: 90 ± 30 µM
- Tumour growth delay (LSBD1 tumour; [4]): 4.3 ± 1.44 days
- Tumour growth delay (LSBD1 tumour; [5]): 7.83 ± 3.33 days
- Tumour growth delay (LSBD1 tumour; [6]): 1.67 ± 1.53 days

Substance: tetrasulphonylamino caproic acid zinc (II) phthalocyanine [TSZnPc-aminocaproic acid]
- 2h LD50 (mean ± SD, n 3) [1]: 104 ± 14 µM
